The experiment deals with human PHD2 (Homo sapiens (Human), UniProt Q9GZT9). The experiment can be described thus: Test 2: human PHD2 inhibitory activity, fluorescence polarization assay of HIF-1α peptide proline hydroxylation. It counts as biochemical. The conditions noted are these: for inhibition at 1 µM: read-out: Percent inhibition (% at 1 μM); for IC50: human PHD2, fluorescence polarization assay, 20-min incubation at 30° C. On the procedure:
(1) Expression and Preparation of Human PHD2
A registered sequence of human PHD2 (NM_022051) was introduced into pcDNA3.1/Hygro(+) vector (Invitrogen), and the sequence was verified. […] The suspension of disrupted cells was centrifuged at 4° C. and 100,000×g for 30 minutes and the supernatant was recovered as a cell lysate.
(2) Measurement of Human PHD2 Inhibitory Activity
The activity of human PHD2 enzyme was measured with a substrate which is a 19-residue partial peptide based on the sequence of HIF-1α; specifically, the hydroxylation of a proline residue in the peptide was measured by FP (Fluorescence Polarization).
A test compound and the substrate solution were preliminarily added onto 384-well plates and reaction was initiated by adding a human PHD2 enzyme solution (40 ng/well). After 20-min incubation at 30° C., an EDTA-containing quench solution was added and the amount of the proline residues hydroxylated via binding to an added HIF—OH antibody solution was quantified by fluorescence polarization.
The fluorescence polarization of each well was measured and the human PHD2 inhibitory activity of each test compound was calculated on the basis of the values for the test compound-free group.

The mark [1] stands for this setting: test compound's concentration 1 μM, Test 2, fluorescence polarization assay.

Structures can show the parent of a compound that is named as a salt. Where two headings read alike, the source gives them in different places.

The record followed here is patent US9422240B2, “Partially saturated nitrogen-containing heterocyclic compound” (TAISHO PHARMACEUTICAL CO., LTD, priority 2012, dated 2016).

human PHD2, sequence (Q9GZT9 whole entry): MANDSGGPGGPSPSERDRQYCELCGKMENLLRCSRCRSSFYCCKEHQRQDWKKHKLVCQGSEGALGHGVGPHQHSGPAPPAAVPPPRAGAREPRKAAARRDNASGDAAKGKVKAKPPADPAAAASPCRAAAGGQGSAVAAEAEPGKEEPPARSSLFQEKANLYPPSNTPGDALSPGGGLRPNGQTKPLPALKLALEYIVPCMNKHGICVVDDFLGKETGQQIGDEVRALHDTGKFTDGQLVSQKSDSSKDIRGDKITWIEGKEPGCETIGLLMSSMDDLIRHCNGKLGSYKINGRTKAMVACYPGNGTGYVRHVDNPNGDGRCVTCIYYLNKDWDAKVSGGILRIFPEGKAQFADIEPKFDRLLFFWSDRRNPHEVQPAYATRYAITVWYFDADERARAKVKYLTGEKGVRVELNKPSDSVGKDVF

`O=C(O)CNC(=O)C1=C(O)CCN(C[C@H]2CC[C@H](OCc3ccc(F)cc3)CC2)C1=O` [Ex. 1-438]: under setting [1], the inhibition at 1 µM was 90%.

As for `O=C(O)CNC(=O)C1=C(O)CCN(C[C@H]2CC[C@H](Oc3ccccn3)CC2)C1=O` [Ex. 1-439], the inhibition at 1 µM under setting [1] came to 81%. The compound `O=C(O)CNC(=O)C1=C(O)CCN(Cc2cnc(Oc3ccc(Cl)cc3)cn2)C1=O` [Ex. 1-440] gave a half-maximal inhibitory concentration (IC50) of 39 nM. Under setting [1], the inhibition at 1 µM is 98%.

For the compound `O=C(O)CNC(=O)C1=C(O)CCN(C[C@H]2CC[C@H](Oc3ccc(C4CC4)cc3)CC2)C1=O` [Ex. 1-442], under setting [1], the inhibition at 1 µM was found to be 98%.

The compound `O=C(O)CNC(=O)C1=C(O)CCN(Cc2cnc(Oc3ccc(C4CC4)cc3)cn2)C1=O` [Ex. 1-443] yielded a 50% inhibitory concentration (IC50) of 21 nM. In addition, under setting [1], the inhibition at 1 µM was 101%. On to `O=C(O)CNC(=O)C1=C(O)CCN(C[C@H]2CC[C@H](OCc3ccccc3)CC2)C1=O` [Ex. 1-444], for which the inhibition at 1 µM under setting [1] was 88%. On the same count and under the same terms, under `O=C(O)CNC(=O)C1=C(O)CCN(C[C@H]2CC[C@H](OCC3CC3)CC2)C1=O` [Ex. 1-445] stands 75%; under `O=C(O)CNC(=O)C1=C(O)CCN(C[C@H]2CC[C@H](Oc3ccc(C4CC4)cn3)CC2)C1=O` [Ex. 1-446], 94%. Same read-out and setting: as for `O=C(O)CNC(=O)C1=C(O)CCN(C[C@H]2CC[C@H](OCCc3ccccc3)CC2)C1=O` [Ex. 1-447], the figure is 98%; as for `O=C(O)CNC(=O)C1=C(O)CCN(C[C@H]2CC[C@H](OCC3CCCC3)CC2)C1=O` [Ex. 1-448], 92%. On the same count and under the same terms, under `CCc1ccc(O[C@H]2CC[C@H](CN3CCC(O)=C(C(=O)NCC(=O)O)C3=O)CC2)nc1` [Ex. 1-449] stands 99%. Consider `Cc1ccc(CO[C@H]2CC[C@H](CN3CCC(O)=C(C(=O)NCC(=O)O)C3=O)CC2)cc1` [Ex. 1-450], for which the inhibition at 1 µM under setting [1] is 97%. Still for that read-out and setting: under `O=C(O)CNC(=O)C1=C(O)CCN(C[C@H]2CC[C@H](OC3CCC3)CC2)C1=O` [Ex. 1-451] stands 82%.

Turning to `CC(Cc1ccc(Cl)cc1)N1CCC(O)=C(C(=O)NCC(=O)O)C1=O` (centres unmarked) [Ex. 1-452], under setting [1], the inhibition at 1 µM worked out at 67%. Still for that read-out and setting: as for `O=C(O)CNC(=O)C1=C(O)CCN(Cc2ccc(C3CCCCC3)c(F)c2)C1=O` [Ex. 1-453], the figure is 94%; as for `O=C(O)CNC(=O)C1=C(O)CCN(C[C@H]2C[C@H](Oc3ccc(Cl)cc3)C2)C1=O` [Ex. 1-454], 95%. Same read-out and setting: under `O=C(O)CNC(=O)C1=C(O)CCN(C[C@H]2C[C@@H](Oc3ccc(Cl)cc3)C2)C1=O` [Ex. 1-456] stands 98%; under `O=C(O)CNC(=O)C1=C(O)CCN(C[C@H]2C[C@H](OCc3ccc(Cl)cc3)C2)C1=O` [Ex. 1-457], 94%. Still for that read-out and setting: under `Cc1ccc(O[C@H]2C[C@H](CN3CCC(O)=C(C(=O)NCC(=O)O)C3=O)C2)cc1` [Ex. 1-458] stands 89%; under `O=C(O)CNC(=O)C1=C(O)CCN(C[C@H]2C[C@H](Oc3ccc(C(F)(F)F)cc3)C2)C1=O` [Ex. 1-459], 96%; under `O=C(O)CNC(=O)C1=C(O)CCN(C[C@H]2C[C@H](Oc3cccc(Cl)c3)C2)C1=O` [Ex. 1-460], 92%. For `O=C(O)CNC(=O)C1=C(O)CCN(Cc2ccc(OCn3nnc4ccccc43)cc2)C1=O` [Ex. 1-461], the inhibition at 1 µM under setting [1] was determined as 95%. Still for that read-out and setting: as for `Cc1cc(C)n(COc2ccc(CN3CCC(O)=C(C(=O)NCC(=O)O)C3=O)cc2)n1` [Ex. 1-462], the figure is 87%; as for `Cn1nc2ccccc2c1COc1ccc(CN2CCC(O)=C(C(=O)NCC(=O)O)C2=O)cc1` [Ex. 1-463], 99%. On the same count and under the same terms, under `O=C(O)CNC(=O)C1=C(O)CCN(C[C@H]2CC[C@H](OCc3ccc(Cl)cn3)CC2)C1=O` [Ex. 1-464] stands 87%. On the same count and under the same terms, under `O=C(O)CNC(=O)C1=C(O)CC(CO)(CCl)N(Cc2ccc(-c3ccccc3)cc2)C1=O` (centres unmarked) [Ex. 1-465, N-{[1-(4-Biphenylylmethyl)-6-(chloromethyl)-4-hydroxy-6-(hydroxymethyl)-2-oxo-1,2,5,6-tetrahydro-3-pyridinyl]carbonyl}glycine] stands 80%. As to `O=C(O)CNC(=O)C1=C(O)CCN(Cc2ccc(O)c(Cl)c2)C1=O` [Ex. 1-466, N-{[1-(3-Chloro-4-hydroxybenzyl)-4-hydroxy-2-oxo-1,2,5,6-tetrahydro-3-pyridinyl]carbonyl}glycine disodium], the inhibition at 1 µM under setting [1] was found to be 77%. Turning to `O=C(O)CNC(=O)C1=C(O)CCN(Cc2ccc(C3=CCC(F)(F)CC3)cc2)C1=O` [Ex. 1-467, N-({1-[4-(4,4-difluoro-1-cyclohexen-1-yl)benzyl]-4-hydroxy-2-oxo-1,2,5,6-tetrahydro-3-pyridinyl}carbonyl)glycine sodium salt], the inhibition at 1 µM amounted to 95%. Take `Cc1cc(CN2CCC(O)=C(C(=O)NCC(=O)O)C2=O)ccc1OCC1CC1` [Ex. 1-468, N-({1-[4-(Cyclopropylmethoxy)-3-methylbenzyl]-4-hydroxy-2-oxo-1,2,5,6-tetrahydro-3-pyridinyl}carbonyl)glycine sodium salt]: the inhibition at 1 µM is 85%. On to `COc1cnccc1-c1ccc(CN2CCC(O)=C(C(=O)NCC(=O)O)C2=O)cc1` [Ex. 2-2, N-({4-Hydroxy-1-[4-(3-methoxy-4-pyridinyl)benzyl]-2-oxo-1,2,5,6-tetrahydro-3-pyridinyl}carbonyl)glycine sodium salt], for which the inhibition at 1 µM under setting [1] worked out at 98%.

As to `COc1ncccc1-c1ccc(CN2CCC(O)=C(C(=O)NCC(=O)O)C2=O)cc1` [Ex. 2-3, N-({4-Hydroxy-1-[4-(2-methoxy-3-pyridinyl)benzyl]-2-oxo-1,2,5,6-tetrahydro-3-pyridinyl}carbonyl)glycine sodium salt], the inhibition at 1 µM under setting [1] was 92%. Regarding `Cc1ccc(-c2ccc(CN3CCC(O)=C(C(=O)NCC(=O)O)C3=O)cc2)cn1` [Ex. 2-4, N-({4-Hydroxy-1-[4-(6-methyl-3-pyridinyl)benzyl]-2-oxo-1,2,5,6-tetrahydro-3-pyridinyl}carbonyl)glycine sodium salt], the inhibition at 1 µM amounted to 88%. On the same count and under the same terms, as for `Cc1ccc(-c2ccc(CN3CCC(O)=C(C(=O)NCC(=O)O)C3=O)cc2)nc1` [Ex. 2-5, N-({4-Hydroxy-1-[4-(5-methyl-2-pyridinyl)benzyl]-2-oxo-1,2,5,6-tetrahydro-3-pyridinyl}carbonyl)glycine sodium salt], the figure is 97%. Regarding `CS(=O)(=O)c1ccc(-c2ccc(CN3CCC(O)=C(C(=O)NCC(=O)O)C3=O)cc2)cc1` [Ex. 2-31], the inhibition at 1 µM under setting [1] turned out to be 93%. On to `CN(C)C(=O)c1ccc(-c2ccc(CN3CCC(O)=C(C(=O)NCC(=O)O)C3=O)cc2)cc1` [Ex. 2-32], for which the inhibition at 1 µM under setting [1] was 85%. Same read-out and setting: under `O=C(O)CNC(=O)C1=C(O)C2(CCCCC2)N(Cc2ccc(-c3ccc(Cl)cc3)cc2)C1=O` [Ex. 2-33] stands 91%.

Turning to `O=C(O)CNC(=O)C1=C(O)CCN(Cc2ccc(-c3ccc(C(=O)O)cc3)cc2)C1=O` [Ex. 2-34], the inhibition at 1 µM under setting [1] was 97%. Same read-out and setting: under `COc1ccc(-c2ccc(CN3CCC(O)=C(C(=O)NCC(=O)O)C3=O)cn2)cc1` [Ex. 2-35] stands 96%; under `O=C(O)CNC(=O)C1=C(O)CCN(Cc2ccc(-c3ccc(OC(F)(F)F)cc3)nc2)C1=O` [Ex. 2-36], 95%. For the compound `O=C(O)CNC(=O)C1=C(O)CCN(Cc2ccc(-c3ccc(F)cc3)nc2)C1=O` [Ex. 2-37], the inhibition at 1 µM under setting [1] was 91%. The same measure, in the same setting: as for `COc1ccc(-c2ccc(CN3CCC(O)=C(C(=O)NCC(=O)O)C3=O)nc2)cc1` [Ex. 2-38], the figure is 92%; as for `O=C(O)CNC(=O)C1=C(O)CCN(Cc2ccc(-c3ccc(OC(F)(F)F)cc3)cn2)C1=O` [Ex. 2-39], 93%.

As for `O=C(O)CNC(=O)C1=C(O)CCN(Cc2ccc(-c3ccc(C(F)(F)F)cc3)cn2)C1=O` [Ex. 2-40], the inhibition at 1 µM under setting [1] came out at 96%. Still for that read-out and setting: as for `COc1cc(-c2ccc(CN3CCC(O)=C(C(=O)NCC(=O)O)C3=O)cc2)ccn1` [Ex. 2-41], the figure is 93%; as for `COc1ncc(-c2ccc(CN3CCC(O)=C(C(=O)NCC(=O)O)C3=O)cc2)s1` [Ex. 2-42], 96%; as for `O=C(O)CNC(=O)C1=C(O)CCN(Cc2ccc(-c3cnc(O)s3)cc2)C1=O` [Ex. 2-43], 95%. Still for that read-out and setting: as for `Cc1ccc(-c2ccc(CN3CCC(O)=C(C(=O)NCC(=O)O)C3=O)nc2)cc1` [Ex. 2-44], the figure is 96%; as for `Cc1ccc(-c2ccc(CN3CCC(O)=C(C(=O)NCC(=O)O)C3=O)cn2)cc1` [Ex. 2-45], 95%. Still for that read-out and setting: as for `O=C(O)CNC(=O)C1=C(O)CCN(Cc2ccc(-c3ccc(Cl)cc3)nc2)C1=O` [Ex. 2-46], the figure is 93%. Consider `Cc1ccc(-c2ccc(CN3CCC(O)=C(C(=O)NCC(=O)O)C3=O)cc2)s1` [Ex. 2-47], for which, under setting [1], the inhibition at 1 µM worked out at 100%.

For the compound `O=C(O)CNC(=O)C1=C(O)CCN(Cc2ccc(-c3ccc(C4CC4)cc3)nc2)C1=O` [Ex. 2-48], the inhibition at 1 µM under setting [1] stood at 103%.

For `O=C(O)CNC(=O)C1=C(O)CCN(Cc2ccc(-c3ccc(C4CC4)cc3)cc2)C1=O` [Ex. 2-49], the inhibition at 1 µM under setting [1] came to 93%. Still for that read-out and setting: under `O=C(O)CNC(=O)C1=C(O)CCN(Cc2ccc(-c3ccc(C4CC4)cc3)cn2)C1=O` [Ex. 2-50] stands 99%; under `COc1cccc(-c2ccc(CN3CCC(O)=C(C(=O)NCC(=O)O)C3=O)cn2)c1` [Ex. 2-51], 97%.

By inhibition is commonly meant the relative decrease from the control value, in per cent. As usually defined, the IC50 is the concentration that gives 50% inhibition. A low value points to inhibition by little substance.
